Results reported in patent EP0469010B1, “COSMETIC COMPOSITION” (priority 1989, dated 1990).
Counter-ions that a name gives are not always drawn.

Legend:
Assay type in all cases: in vivo, human
[1] = test system: alopecia areata; assay: Clinical pilot study of topical sodium sucrose sulfate in alopecia: alopecia areata; parameters: key: very good in cases of definite cosmetic benefit; good in cases of significant regrowth of new hair, but not to an extend that is cosmetically apparent at distance; no effect in cases of no or only marginal regrowth of hair; details: 5 female patients aged 39 to 46 years, treated 2 to 9 months, 3% solution topically
Experimental: (§1) During a 11 month period (April 1989 to March 1990), a total of 50 patients participated in a pilot study, evaluating the effect of the sodium salt of sucrose sulfate administered topically for the treatment of alopecia.
(§2) The test preparation was a 3% solution of Na-sucrose sulfate in a vehicle of 50% water/25% ethanol/25% propylene glycol (w/w), dispensed in 35 ml bottles with a sponge for topical administration on the scalp. The test preparation was applied morning and evening on the scalp, preferably on areas of partial or total alopecia. In average the patients have been using one bottle per month.
(§3) All patients were recruited by one dermatologist, and the effect of treatment was evaluated clinically by the same investigator, at monthly clinic visits.
(§4) The clinical effect was classified as very good in cases of definite cosmetic benefit, as good in cases of significant regrowth of new hair, but not to an extend that is cosmetically apparent at distance, and as no effect in cases of no or only marginal regrowth of hair.
5 Female patients with alopecia areata aged from 39 years to 46 years were treated for periods from 2 to 9 months, the treatment showing a very good effect.

[2] = test system: Ludwig type alopecia; assay: Clinical pilot study of topical sodium sucrose sulfate in alopecia: Ludwig type alopecia in females; details: 5 females aged 20-49 years, treated 6-8 months, 3% solution topically
Experimental: as §2, §3, §4
5 Females aged from 20-49 years with Ludwig type alopecia were treated with the test drug for 6-8 months.

[3] = test system: hair loss secondary to anti-cancer treatment; assay: Pilot study of sodium sucrose sulfate, prophylactic and therapeutic, in hair loss secondary to anti-cancer treatment
From the text: The test preparation containing sodium sucrose sulfate from Example 11 was used both prophylactically and therapeutically in a few patients undergoing radiation and/or cytostatic anti-cancer treatment. One person started the treatment with the test preparation immediately after the anti-cancer treatment was instituted, applying the test preparation twice daily on eyebrows and eyelashes on the right side, and the left side served as untreated control. The treatment lasted four weeks. […] Another four females - also on anti-cancer treatment - used the test preparation twice daily, topically on the scalp after the hair was lost.

[4] = test system: subtotal or total alopecia, with underlying atopic dermatitis; assay: Clinical pilot study of topical sodium sucrose sulfate in alopecia: subtotal or total alopecia; details: 3% solution topically
Experimental: as §1, §2, §3, §4
2 Patients suffered from subtotal or total alopecia, with underlying atopic dermatitis.

[5] = test system: Male androgenic alopecia; assay: Clinical pilot study of topical sodium sucrose sulfate in alopecia: male androgenic alopecia; parameters: key to clinical effect: very good in cases of definite cosmetic benefit; good in cases of significant regrowth of new hair, but not to an extend that is cosmetically apparent at distance; no effect in cases of no or only marginal regrowth of hair; details: for clinical effect: 4 patients; for Clinical effect Good (number of patients) / Clinical effect No effect (number of patients) / Clinical effect Very good (number of patients): 3% solution topically morning and evening, about 3 to 9 months
Experimental: During a 11 month period (April 1989 to March 1990), a total of 50 patients participated in a pilot study, evaluating the effect of the sodium salt of sucrose sulfate administered topically for the treatment of alopecia. The test preparation was a 3% solution of Na-sucrose sulfate in a vehicle of 50% water/25% ethanol/25% propylene glycol (w/w), dispensed in 35 ml bottles with a sponge for topical administration on the scalp. The test preparation was applied morning and evening on the scalp, preferably on areas of partial or total alopecia. In average the patients have been using one bottle per month. All patients were recruited by one dermatologist, and the effect of treatment was evaluated clinically by the same investigator, at monthly clinic visits. The clinical effect was classified as very good in cases of definite cosmetic benefit, as good in cases of significant regrowth of new hair, but not to an extend that is cosmetically apparent at distance, and as no effect in cases of no or only marginal regrowth of hair. Male androgenic alopecia was the clinical diagnosis in 35 patients, their age ranging from 17 years to 50 years. Period of treatment was about 3 months in 15 case, about 6 months in 10 cases, and about 9 months in 10 cases.

[6] = test system: underlying discoid LE; assay: Clinical pilot study of topical sodium sucrose sulfate in alopecia: underlying discoid LE; parameters: key: very good in cases of definite cosmetic benefit; good in cases of significant regrowth of new hair, but not to an extend that is cosmetically apparent at distance; no effect in cases of no or only marginal regrowth of hair; details: 2 female patients, treated 2 and 4 months; regrowth except for the very center of the lesion
Experimental: as §1, §2, §3, §4
2 female patients with underlying discoid LE were successfully treated for 2 and 4 months, respectively, with a very good effect comprising regrowth of hair except for the very center of the lesion.

[7] = test system: very bad hair condition and underlying psoriasis; assay: Clinical pilot study of topical sodium sucrose sulfate in alopecia: bad hair condition with psoriasis; parameters: key: very good in cases of definite cosmetic benefit; good in cases of significant regrowth of new hair, but not to an extend that is cosmetically apparent at distance; no effect in cases of no or only marginal regrowth of hair; details: one person, treated for 9 months, 3% solution topically
Experimental: as §1, §2, §3, §4
One person with very bad hair condition and underlying psoriasis was treated for 9 months and a very good effect on the test drug was obtained.

[8] = test system: total alopecia; assay: Clinical pilot study of topical micronized sucralfate in alopecia: total alopecia; details: one patient, total alopecia for 20 years, 5% micronized sucralfate twice daily for 6 weeks
From the text: (§5) A composition containing micronized sucralfate (<5 µm, Giulini Chemie, Germany) 5%, ethanol 25%, propylene glycol 25%, and distilled water 45%, was used in two daily applications on the scalp, the composition being dispensed in a bottle with sponge applicator. The average consumption of the test preparation in individual patients was about one bottle per month. […] The effects were lasting after stopping the treatment for about 4 months.

[9] = test system: Male androgenic alopecia; assay: Clinical pilot study of topical micronized sucralfate in alopecia: male androgenic alopecia
From the text: as §5

[10] = test system: common male-pattern baldness; assay: Treatment with sucralfate cream of common male-pattern baldness (single case, Example 14); details: 10% w/w sucralfate preparation, two daily topical applications, person, after 3-4 weeks
From the text: At the beginning, a "plume" appeared in the area, and after a few days the "plume" began turning into real hairs and 8 days after, there were dozens of real hairs which were indistinguishable from other hairs of the scalp, apart from being shorter and all coloured in the original colour of the hair, in contrast to the existing hair, which was partially greyed.

[11] = age group 17-25 years, 20 patients
[12] = age group 25-40 years, 10 patients
[13] = age group >40 years, 5 patients

O=S(=O)(O)OC[C@H]1O[C@@](COS(=O)(=O)O)(O[C@H]2O[C@H](COS(=O)(=O)O)[C@@H](OS(=O)(=O)O)[C@H](OS(=O)(=O)O)[C@H]2OS(=O)(=O)O)[C@@H](OS(=O)(=O)O)[C@@H]1OS(=O)(=O)O [sodium sucrose sulfate, Sodium sucrose octasulfate]
clinical effect [1]: very good | number of patients with good effect [2]: 3 patients | number of patients with only a marginal effect [2]: 2 patients | regrowth of hair after loss ([3]; four females on anti-cancer treatment, twice daily topically on the scalp after the hair was lost): much faster regrowth of hair than normally | prevention of loss of eyebrows and eyelashes ([3]; one on anti-cancer treatment, twice daily on right side for four weeks, left side untreated control (lost)): eyebrows and eyelashes remained | effect of treatment ([4]; person with 2-3 years of alopecia, treatment for 8 months): only little effect | regrowth of hair ([4]; person, bald for 20 years, treatment for 10 months): complete regrowth of hair | clinical effect ([5]; age group 17-25, previously failed on minoxidil, 3% solution topically): no effect | clinical effect ([5]; age group 25-40, previously failed on minoxidil, 3% solution topically): good | Clinical effect Good (number of patients) [5, 11]: 8 | Clinical effect No effect (number of patients) [5, 11]: 4 | Clinical effect Very good (number of patients) [5, 11]: 8 | Clinical effect Good (number of patients) [5, 12]: 2 | Clinical effect No effect (number of patients) [5, 12]: 2 | Clinical effect Very good (number of patients) [5, 12]: 4 | Clinical effect Good (number of patients) [5, 13]: 2 | Clinical effect No effect (number of patients) [5, 13]: 2 | time of treatment until hair-growing effect apparent ([5]; patients responding to the treatment, whole pilot study, typical value): ~1 month | effect in comparison to topically applied minoxidil (Regain®) ([5]; whole pilot study, 3% solution topically): markedly better effect | clinical effect [6]: very good | clinical effect [7]: very good

sucrose octakis(hydrogen sulfate) aluminium complex [sucralfate]
regrowth of hair [8]: dense regrowth of fine short terminal hairs all over the scalp | regrowth of hair ([9]; one person, Hamilton grade 3, 5% micronized sucralfate twice daily for two months): dense regrowth of small terminal hairs | duration of effects after stopping the treatment ([9]; one person, Hamilton grade 3, after two months of treatment): about 4 months | regrowth of hair ([9]; six male patients aged 30 to 48 years, Hamilton grade 3 and 4, 5% micronized sucralfate twice daily for 3 to 6 months, all six cases): definite regrowth of terminal hairs | time of treatment until effect seen ([9]; six male patients, Hamilton grade 3 and 4, typical value): 6-8 weeks | appearance of hair [10]: appearance of hair in the otherwise bald lateral-frontal areas
